Laboratory results published in patent US20260294863A1, “METHOD OF TREATING FIBROTIC-RELATED CONDITION” (YISSUM RESEARCH DEVELOPMENT COMPANY OF THE HEBREW …, priority 2023, published 2026).
Entries after “also recorded” stand apart in the source; their conditions may differ.

Columns and labels:
IL-6 = IL-6 in bronchial fluid, bleomycin-induced lung fibrosis (ELISA); assay type: in vivo, C57BL/6JOlaHsd mice; settings: AN1284 2.5 mg/kg/day, bleomycin, males; 2.5 mg/kg/day
Experimental: (§1) The animal model of bleomycin-induced lung fibrosis is widely used to characterize the potential inhibitory effect of newly developed drugs (Distler et al. 2019). Experiments were performed in C57BL/6JOlaHsd male and female mice aged 12-13 weeks. Male mice weighed 23-27.3 g and female mice, 19.4-21.1 g. They were housed under pathogen-free conditions, up to 6 per cage, in IVC cages under a controlled temperature of 22-24° C., humidity and alternating 12-h light/dark cycles and provided with food and water ad libitum. In order to minimize the stress of daily injection, ladostigil (5 mg/Kg/day) was administered by micro-osmotic pumps, implanted subcutaneously under ketamine/xylazine anesthesia, 5 days before administration of bleomycin, and delivered for 3 weeks to mice of each sex. Saline (2-3/sex) and bleomycin controls were anesthetized as described above. Bleomycin solution (0.25 mg/kg in 50 μl) was instilled into the lumen of the trachea as shown in a video by Ehrentraut et al. (2019). […] TNFα and IL-6 in the bronchial fluid lavage was measured by ELISA as described in the preceding section.
(§2) Experiments were performed in C57BL/6JOlaHsd male mice aged 12-13 weeks as described for ladostigil. […] Fibrosis was measured by staining with Sirius red as described for ladostigil. TNFα and IL-6 in the bronchial fluid lavage was measured by ELISA as described for ladostigil.

Nrf2 = Nrf2 in RAW cells activated by LPS; assay type: cell-based
Experimental: (§3) RAW 264.7 cells were seeded at a density of 1×10^5 cells per well in 48-well culture plates and grown overnight in DMEM supplemented as indicated above. The wells were washed with PBS (pH 7.4). AN1284, prepared in sterile double distilled water and Budesonide (positive control) were added to give final concentrations ranging from 1× 10^−13-1×10^−7M in medium containing 2% FCS. The cells were incubated for 2 h at 37° C. prior to stimulation with LPS, 2.5 μg/mL from Escherichia coli (Sigma-Aldrich serotype 0111: B4). Supernatants were harvested after 8 hrs for measurement of TNF-α and 24 h for IL-6. TNF-α and IL-6 protein were detected by a commercial ELISA kit (Biolegend, San Diego, CA, USA) according to the manufacturer's instructions. Each concentration of each compound was tested in two-three separate experiments in 6 wells per concentration.
(§4) RAW 264.7 cells were lysed in 0.1 ml of buffer containing 150 mM Tris-Cl (pH 6.8), 10% Glycerol, 0.6% SDS, Bromophenol Blue and 100 mM β-Mercaptoethanol. Lysates were collected and heated at 95° C. for 5 min, then centrifuged for 3 min at 2,240 g. Supernatants were used for gel separation. Protein concentration of the lysates was determined by using Coomassie Brilliant Blue staining. […] Molecular changes were assessed semi-quantitatively after incubation with primary antibodies for relevant proteins.

[1] = tested on: bleomycin-induced lung fibrosis; assay: Lung fibrosis score / collagen content in bleomycin-induced lung fibrosis; assay type: in vivo, C57BL/6JOlaHsd mice
Experimental: (§5) The animal model of bleomycin-induced lung fibrosis is widely used to characterize the potential inhibitory effect of newly developed drugs (Distler et al. 2019). Experiments were performed in C57BL/6JOlaHsd male and female mice aged 12-13 weeks. Male mice weighed 23-27.3 g and female mice, 19.4-21.1 g. They were housed under pathogen-free conditions, up to 6 per cage, in IVC cages under a controlled temperature of 22-24° C., humidity and alternating 12-h light/dark cycles and provided with food and water ad libitum. In order to minimize the stress of daily injection, ladostigil (5 mg/Kg/day) was administered by micro-osmotic pumps, implanted subcutaneously under ketamine/xylazine anesthesia, 5 days before administration of bleomycin, and delivered for 3 weeks to mice of each sex. Saline (2-3/sex) and bleomycin controls were anesthetized as described above. Bleomycin solution (0.25 mg/kg in 50 μl) was instilled into the lumen of the trachea as shown in a video by Ehrentraut et al. (2019). […] Mice were weighed daily and sacrificed on day 21. Bronchial fluid was collected as described in Ehrentraut et al. (2019). TNFα and IL-6 in the bronchial fluid lavage was measured by ELISA as described in the preceding section.
Specimens taken from the left lung were embedded in paraffin and cut into 5 μm-thick slices. They were put on slides and paraffin was removed. They were rehydrated and stained with a solution of Sirius red (100 mg/100 ml of [COMPOUND LEFT OUT], rinsed in distilled water until clear, dehydrated and mounted in a resinous medium. The red stain (also called “Sirius red” stain) is one of the best understood histochemical techniques. It relies on the birefringent properties of collagen and is much more specific than the other common collagen stains, Pulmonary fibrosis was evaluated on a score of 0-4 on 15-20 different fields taken from each lung section, according to the area and intensity of fibrotic staining in the field, excluding that in blood vessels. Two independent scientists blinded to the treatment performed the analysis. For TGFβ1 staining, slides were deparaffinized and rehydrated. Antigen retrieval was performed in Tris-based buffer, pH 9.0. Endogenous peroxidase activity was quenched by incubation in 3% H2O2. The tissue was permeabilized with Triton X-100 0.1% in PBS. After blocking, sections were incubated with primary antibody: diluted rabbit recombinant monoclonal TGFβ1 antibody (Abcam ab215715) over night, at 4° C. Slices were further incubated with the secondary antibody: ImmPRESS®-HRP Goat Anti-Rabbit IgG Polymer Detection Kit, Peroxidase (Vector labs VE-MP-7451-15) at room temperature. For color development, sections were incubated in peroxidase substrate solution DAB, at room temperature until desired stain intensity developed. They were then counterstained with filtered hematoxylin and cosin, cleared and mounted.
(§6) Experiments were performed in C57BL/6JOlaHsd male mice aged 12-13 weeks as described for ladostigil. AN1284 (2.5 mg/kg/day) was administered by micro-osmotic pumps, implanted subcutaneously under ketamine/xylazine anesthesia, 5 days before administration of bleomycin and delivered for 3 weeks. Mice were weighed daily, sacrificed on day 21 and bronchial fluid was collected. Fibrosis was measured by staining with Sirius red as described for ladostigil. TNFα and IL-6 in the bronchial fluid lavage was measured by ELISA as described for ladostigil.

[2] = tested on: non-alcoholic steatohepatitis (NASH); settings: 1 mg/kg/day, two months, micro-osmotic pumps; cited from earlier work
TNFα [3] = assay: TNFα in bronchial fluid, bleomycin-induced lung fibrosis (ELISA); assay type: in vivo, C57BL/6JOlaHsd mice; settings: AN1284 2.5 mg/kg/day, bleomycin, males; 2.5 mg/kg/day
Experimental: as §1, §2

Egr1 = Egr1 in RAW cells activated by LPS; assay type: cell-based
Experimental: as §3, §4

MAPK p38 = settings: cited from earlier work
[4] = tested on: Aryl hydrocarbon receptor (AhR); settings: 1 mg/kg/day, two months, NASH mice; cited from earlier work
[5] = Body weight in bleomycin-induced lung fibrosis; assay type: in vivo, C57BL/6JOlaHsd mice; settings: AN1284 2.5 mg/kg/day, days 11 and 14 after bleomycin, males
Experimental: as §5, §6

Activator protein-1 = settings: cited from earlier work
[6] = tested on: LPS-activated macrophages; settings: cited from earlier work
NLRP3 = NLRP3 in RAW cells activated by LPS; assay type: cell-based
Experimental: as §3, §4

[7] = tested on: cytotoxicity resulting from oxidative stress; settings: cited from earlier work
IL1β = assay: Secretion of IL1β from BzATP/LPS-activated microglia (ELISA); assay type: cell-based, Balb/C mice
Experimental: (§7) Experiments were performed on primary microglial cells isolated from brains of neonatal Balb/C mice as previously described (Reichert and Rotshenker, 2003). The brains were stripped of their meninges and enzymatically dissociated. Cells were plated on Poly-L-lysine coated flasks for one week, re-plated for 1- to 2-hr on bacteriological plates and non-adherent cells were washed away. Microglia were propagated by incubation in 20% of medium, conditioned by the L-cell line that produces mouse-CSF. They were identified by morphology and positive immune-reactivity to P2y12, F4/80, complement receptor-3 and Galectin-3/MAC-2 (Reichert and Rotshenker 2003; Gitik et al. 2011).
(§8) Cytokines were measured as previously described (Shamash et al. 2002) using ELISA Max deluxe set (Biolegend, CA, USA) for secreted TNFα and IL-6 proteins and ELISA DuoSet (R&D systems, UK) for secreted and cell associated IL-1β, according to manufacturer's instructions.
(§9) The effect of ladostigil at concentrations of 1×10^−13 M to 1×10^−9 M on the secretion of cytokine proteins was assessed by adding it to microglia for 2 hr before LPS (0.75 μg/ml) and BzATP (400 μM). Other microglia were treated similarly with the steroid, budesonide as a reference standard at concentrations of 1× 10^−13 to 1× 10^−11 M. Measurements of cytokine secretion were performed 8 hrs after addition of LPS and BzATP. Since the levels of secreted IL-1β were still low, samples were concentrated 2- to 4-fold by an Amicon ultra-centrifugal filter device (Merck-Millipore, Ireland). ELISA was used to quantify the levels of cytokine proteins. Protein content in the microglia lysate was measured by Bradford and levels of cytokines were calculated and presented as pg/μg of microglial protein.

TNFα [8] = assay: Secretion of TNFα from BzATP/LPS-activated microglia (ELISA); assay type: cell-based, Balb/C mice; settings: all concentrations tested, added 2 hrs before BzATP and LPS, 0.1% BSA; p<0.01
Experimental: as §7, §8, §9

IL6 = assay: Secretion of IL6 from BzATP/LPS-activated microglia (ELISA); assay type: cell-based, Balb/C mice; settings: all concentrations tested
Experimental: as §7, §8, §9

[9] = Mortality in bleomycin-induced lung fibrosis; assay type: in vivo, C57BL/6JOlaHsd mice; settings: bleomycin alone
Experimental: as §5, with “In order to minimize the stress of daily injection, ladostigil (5 mg/Kg/day) was administered by micro-osmotic pumps, implanted subcutaneously under ketamine/xylazine anesthesia, 5 days before administration of bleomycin, and delivered for 3 weeks to mice of each sex.” left out

[10] = Body weight in bleomycin-induced skin sclerosis; assay type: in vivo, C57BL/6 mice; settings: bleomycin, days 24-27
Experimental: (§10) Male C57BL/6 mice aged 8 weeks were housed under pathogen-free conditions at a controlled temperature of 22-24° C., humidity and alternating 12-h light/dark cycles and provided with food and water ad libitum. Skin sclerosis was induced as described by Ravanetti et al, (2020). A small incision was made in the skin at the back caudal to the scapulae and subcutaneous pocket was created into which an Alzet micro-osmotic pump was implanted, and the incision closed with two stiches and a surgical clip. The pumps contained bleomycin, (delivered at the rate of 60 U/kg body weight) or saline (control) and were removed 10 days after implantation. The mice were monitored daily until they recovered completely and weighed twice weekly from the beginning of the experiment.
(§11) Ladostigil (10 mg/kg/day) was administered in the drinking fluid to 10 mice, housed 2/cage, from 3 days before bleomycin pump installation until the end of the experiment. The fluid intake of the mice was measured daily. The dose of ladostigil was adjusted accordingly. Bleomycin alone, (10 mice) and saline controls (6 mice) received regular drinking fluid.

skin sclerosis = assay: Dermal and hypodermal thickness in bleomycin-induced skin sclerosis; assay type: in vivo, C57BL/6 mice; settings: bleomycin treatment
Experimental: as §10, §11
Skin was harvested on the gluteal region to avoid dermal fibrosis artifact due to proximity to the site of implant. For histological assessment, the samples were dehydrated in a graded ethanol series, clarified in xylene, and paraffin embedded. They were mounted on slides and paraffin was removed. Sections of 5 μm thickness were cut with a rotary microtome and stained with hematoxylin and eosin (H&E)

Compound: CC(C)NCCCN1CCc2ccccc21.Cl.Cl [AN1284, 3-(indolin-1-yl)-N-isopropylpropan-1-amine 2HCl]
- IL-6 in bronchial fluid (IL-6): does not affect levels of pro-inflammatory cytokines; also recorded: did not reduce
- Nrf2 (Nrf2; LPS + AN1284 0.1 nM, LPS + vehicle 2.3): 1.6
- expression of Nrf2 (Nrf2; LPS-activated RAW cells): decreased the expression of Nrf2
- collagen levels / fibrosis score ([1]; AN1284 2.5 mg/kg/day by micro-osmotic pumps, males): reduced fibrosis score
- fibrosis (overall conclusion) ([1]; bleomycin-induced lung fibrosis murine model): shown to reduce fibrosis
- steatosis, lipogenesis, and fibrosis [2]: attenuated steatosis, lipogenesis, and fibrosis
- TNFα in bronchial fluid (TNFα [3]): does not affect levels of pro-inflammatory cytokines; also recorded: did not reduce
- Egr1 (Egr1; LPS + AN1284 0.1 nM, LPS + vehicle 2.7): 1.3
- EGR1 (Egr1; LPS-activated macrophages): reduced ERG1 in macrophages
- phosphorylation of MAPK p38 (MAPK p38): inhibiting phosphorylation of MAPK p38
- activation of AhR [4]: activation of the Aryl hydrocarbon receptor (AhR)
- body weight loss [5]: reduced body weight loss
- nuclear translocation of Activator protein-1 (Activator protein-1): inhibiting phosphorylation of MAPK p38 and nuclear translocation of Activator protein-1
- release of pro-inflammatory cytokines [6]: reduced the release of pro-inflammatory cytokines
- NLRP3 (NLRP3; LPS + AN1284 0.1 nM, LPS + vehicle 1.6): 1.1
- expression of NLRP3 (NLRP3; LPS-activated RAW cells): effectively reduce expression of NLRP3
- cytotoxicity resulting from oxidative stress [7]: inhibited cytotoxicity

Compound: CCCC1O[C@@H]2C[C@H]3[C@@H]4CCC5=CC(=O)C=C[C@]5(C)[C@H]4[C@@H](O)C[C@]3(C)[C@]2(C(=O)CO)O1 (stereo partly drawn) [budesonide, reference compound]
- reduction of IL1β release (IL1β; all concentrations tested, added 2 hrs before BzATP and LPS, 0.1% BSA, p<0.01): reduced the 3 cytokines significantly
- reduction of IL1β compared with reduction of TNFα (IL1β; ladostigil 1×10^−9 M, budesonide 1×10^−11 M): greater than that of TNFα
- reduction of TNFα release (TNFα [8]): reduced the 3 cytokines significantly
- reduction of IL6 release (IL6; added 2 hrs before BzATP and LPS, 0.1% BSA, p<0.01): reduced the 3 cytokines significantly
- reduction of IL6 compared with reduction of TNF (IL6; p<0.001): greater than those of TNF

Compound: bleomycin [reference compound]
- mortality ([9]; females, days 7 to 17 (6/38)): 16%
- mortality ([9]; males, days 16-19 (5/16)): 31%
- weight gain compared with saline [10]: smaller increase in weight
- hypodermis thickness change caused (skin sclerosis): thinning of the hypodermis
- skin (dermal) thickness change caused (skin sclerosis): thickening
